In publication PMC11187126, “Structure and dynamics of the pyroglutamylated RF-amide peptide QRFP receptor GPR103” (Nature Communications, 2024):
Like-named read-outs stand apart in the source and are kept apart here. No end group written: not given here.

Molecular target: T1, wild-type GPR103 (Homo sapiens, UniProt Q96P65)
T1 construct: we used human full-length QRFPR-encoding plasmids; expressed in transfected cells; host or cells: HEK293 cells, pCAGGS vector
T1 sequence (Q96P65 1-431): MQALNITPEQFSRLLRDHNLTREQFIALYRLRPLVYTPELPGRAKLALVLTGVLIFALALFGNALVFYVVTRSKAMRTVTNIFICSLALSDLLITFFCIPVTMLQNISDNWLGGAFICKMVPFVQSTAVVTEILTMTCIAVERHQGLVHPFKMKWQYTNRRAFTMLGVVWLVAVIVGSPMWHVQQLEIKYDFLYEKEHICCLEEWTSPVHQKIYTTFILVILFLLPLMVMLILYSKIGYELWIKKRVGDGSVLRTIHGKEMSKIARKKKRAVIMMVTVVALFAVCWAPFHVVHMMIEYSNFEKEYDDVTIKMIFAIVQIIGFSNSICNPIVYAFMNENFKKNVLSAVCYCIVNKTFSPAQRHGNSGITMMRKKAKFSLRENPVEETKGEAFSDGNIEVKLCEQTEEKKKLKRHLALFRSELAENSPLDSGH
Assay: TGFα shedding assay, HEK293 cells; WT titrated to lower expression (1:1 to 1:50)
Type: cell-based
Procedure: For the TGFα shedding assay and the flow cytometry analysis, we used human full-length QRFPR-encoding plasmids. Specifically, GPR103 was N-terminally modified with an HA signal sequence followed by a FLAG epitope and then a flexible linker ([…]; the FLAG epitope is underlined) and inserted into the pCAGGS vector. Plasmid encoding GPR103 mutants were generated using Quickchange Site-Directed Mutagensis kit (Agilent).
The TGFα shedding assay was performed as described previously with minor modifications. Plasmid transfection was performed in a 6-well plate with a mixture of 500 ng (per well in a 6-well plate) AP-TGFα-encoding plasmid and 200 ng GPR103-encoding plasmid. After 1-day culture, the transfected cells were harvested by trypsinization, pelleted by centrifugation at 190 × g for 5 min, and washed once with 5 mM HEPES (pH 7.4)-containing Hank’s Balanced Salt Solution (HBSS). After centrifugation, the cells were resuspended in 8 mL of the HEPES-containing HBSS. The cell suspension was seeded in a 96-well culture plate (cell plate) at a volume of 90 μL (per well hereafter) and incubated in a 37 °C incubator with 5% CO2 for 30 min. […] After spinning the cell plates at 190 × g for 2 min, 80 μL of conditioned media was transferred to an empty 96-well plate (conditioned media (CM) plate). Then, 80 μL of AP reaction solution (10 mM p-nitrophenylphosphate (p-NPP), 120 mM Tris-HCl (pH 9.5), 40 mM NaCl, and 10 mM MgCl2) was dispensed into the cell plates and the CM plates. Absorbance at 405 nm of the plates was measured using a microplate reader (SpectraMax 340 PC384, Molecular Devices) before and after 1-h incubation at room temperature. Ligand-induced AP-TGFα release was calculated by subtracting spontaneous AP-TGFα release signal from ligand-induced AP-TGFα release signal. The AP-TGFα release signals were fitted to a four-parameter sigmoidal concentration–response curve, using the Prism 10 software (GraphPad Prism). For each replicate experiment, the pEC50 parameter (negative logarithmic values of EC50 values) of the individual GPR103 mutants were normalized to that of the wild-type GPR103 performed in parallel, and resulting ∆pEC50 values were used to denote ligand response activity of the mutants. […]
Exp. le vel: WT (1:5 0)Exp. le vel: WT (1:5 0)Exp. le vel: WT (1:5 0)Exp. le vel: WT (1:2 0)Exp. le vel: WT (1:2 0)Exp. le vel: WT (1:1 0) […]
L1 4N - t e r mA F2 5N - t e r mA I 2 6N - t e r mA Y 2 9N - t e r mA C 9 82 .5 7A T10 22 .6 1A Exp . l eve l: WT (1 :5)Exp . l evel : >WT (1 :1)Exp. le vel: WT (1:2 0)Exp. le vel: WT (1:2 0)Exp. le vel: WT (1:5 0)Exp . l eve l: WT (1 :1) […]
Exp. le vel: WT (1:1 0)Exp. le vel: WT (1:2 0) C 1 1 83 .2 5AExp. le vel: WT (1:5 0)Exp. le vel: WT (1:5 0)Exp. le vel: WT (1:2 0)Exp . l eve l: WT (1 :5) […]
Exp. le vel: WT (1:5 0)Exp. le vel: WT (1:1 0)Exp. le vel: WT (1:5 0) E203ECL2AExp . l evel : >WT (1 :1)Exp. le vel: WT (1:5 0)Exp. le vel: WT (1:5 0) […]
Exp . l eve l: WT (1 :1) F28Exp. le vel: WT (1:5 0) C 2 8 56 .4 7AExp. le vel: WT (1:2 0) WExp. le vel: WT (1:2 0) F28Exp. le vel: WT (1:5 0)Exp . l evel : >WT (1 :1) […]
Exp. le vel: WT (1:5 0)Exp. le vel: WT (1:5 0) C 3 2 77 .4 8AExp . l eve l: WT (1 :5)Exp . l evel : >WT (1 :1)Exp . l evel : >WT (1 :1) […]
Suppl eme nt ary Figure 1 | Mutational analysis of GPR103. […]
mutants. Data are presented as mean values ± SEM, normally n=3-5; dots), each performed in triplicate. b-d Cell-surface expression (b) and QRFP26-in-duced activation of GPR103 (c, d) were analyzed by the flow cytometry and the TGFα shedding assay, respectively. From the concentration–response curves (a), Emax (c) and ΔpEC50 (d) values relative to the wild type were calculated. Colors in the mutant bars indicate an expression level matching to that of titrated wild type. Statistical analyses were performed using the ordinary one-way ANOVA followed by Dunnett tests with the expression-matched […]

TSGPLGNLAEELNGYSRKKGGFSFRF-NH2 [QRFP26]
Emax (HEK293, WT (1:2), mean, read-out: Emax): 102%
Emax (HEK293, WT (1:2), n = 5, read-out: Emax): 102 ± 1.4%
Emax (HEK293, WT (1:5), mean, read-out: Emax): 98%
Emax (HEK293, WT (1:10), mean, read-out: Emax): 85.2%
Emax (HEK293, WT (1:10), n = 5, read-out: Emax): 86.5 ± 1.5%
Emax (HEK293, WT (1:20), mean, read-out: Emax): 68.7%
Emax (HEK293, WT (1:20), n = 5, read-out: Emax): 69.6 ± 1.9%
Emax (HEK293, WT (1:50), mean, read-out: Emax): 40%
Emax (HEK293, WT (1:50), n = 3, read-out: Emax): 38.9 ± 2.7%
EC50 (WT (1:1), n = 5): 5.13 nM
Emax (WT (1:2), Exp. #1): 99.44 % WT
Emax (WT (1:2), Exp. #2): 98.59 % WT
Emax (WT (1:2), Exp. #3): 107.25 % WT
Emax (WT (1:2), Exp. #4): 101.53 % WT
Emax (WT (1:2), Exp. #5): 103.42 % WT
EC50 (WT (1:2), n = 5): 6.61 nM
Emax (WT (1:5), Exp. #1): 95.01 % WT
Emax (WT (1:5), Exp. #2): 93.02 % WT
Emax (WT (1:5), Exp. #3): 103.20 % WT
Emax (WT (1:5), Exp. #4): 97.64 % WT
Emax (WT (1:5), Exp. #5): 100.97 % WT
EC50 (WT (1:5), n = 5): 12.6 nM
Emax (WT (1:10), Exp. #1): 87.43 % WT
Emax (WT (1:10), Exp. #2): 82.73 % WT
Emax (WT (1:10), Exp. #3): 90.71 % WT
Emax (WT (1:10), Exp. #4): 84.24 % WT
Emax (WT (1:10), Exp. #5): 81.03 % WT
EC50 (WT (1:10), n = 5): 15.1 nM
Emax (WT (1:20), Exp. #1): 70.65 % WT
Emax (WT (1:20), Exp. #2): 70.10 % WT
Emax (WT (1:20), Exp. #3): 74.01 % WT
EC50 (WT (1:20), n = 5): 21.4 nM
Emax (WT (1:50), Exp. #3): 46.11 % WT
Emax (WT (1:50), Exp. #4): 34.55 % WT
Emax (WT (1:50), Exp. #5): 39.32 % WT
EC50 (WT (1:50), n = 3): 53.7 nM
